Source: patent publication US20230416785A1, “NUCLEASE AND APPLICATION THEREOF” (CRISP-HR Therapeutics, Inc., priority 2020, published 2023)
“Also recorded” adds a separate entry of the source.

Columns and labels:
Type in all cases: cell-based, human
[1] = system: Safe Harbor Site (SHS)-231; assay: SHS-231 mNeon knock-in in H1299 cells
Source text: After reaching confluency, cells were tryspinized and seeded in 6 well plates, which were then imaged at 10× magnification using a Leica THUNDER Epifluorescent microscope. After imaging, thresholds and ROIs for mNeon+ cells were generated using FIJI (ImageJ).
After 7 days, cells were tryspinized and transferred to 6 well plates, and grown for an additional 7 days. On Day 14, media was replaced with HBSS (to reduce background for imaging) and imaged using a Cytation5 imaging system. Imaging was performed by taking a 6×6 stitched image in the middle of the well using an 10× magnification lens, where both brightfield and RFP images were acquired. HDR rates were quantified via ImageJ, two independent replicates were performed per treatment.

[2] = system: CDH1; assay: CDH1:mCherry knock-in in HEK293 cells; conditions: Ecad-G1
Experimental: After three days, media was replaced with HBSS (to reduce background for imaging) imaged using an Cytation5 imaging system. Imaging was performed by taking a 6×6 stitched image in the middle of the well using an 10× magnification lens, where both brightfield and RFP images were acquired. HDR rates were quantified via ImageJ, two independent replicates were performed per treatment. FIG. 13A illustrates a Cadherin1:mCherry RT design showing the human genomic region surrounding the last exon (exon 16) of Cadherin1. Two different gRNAs are denoted by black arrows (G1, G2), with arrow direction indicating the targeted strand. A repair template was constructed containing about 750 bp long 5′ and 3′ Homology arms, exon 16 of Cadherin1, silent mutations introduced to prevent gRNA binding to the RT, and a direct fusion of the fluorescent protein mCherry. FIG. 13B illustrates quantification of Cadherin1:mCherry HDR rate in H1299 cells showing the average mCherry+ cells per image section (>10 for all conditions) imaged at day 3 post transfection.

[3] = system: Beta-Catenin1; assay: Beta-Catenin1:mCherry knock-in in HEK293 cells
[4] = system: Beta-Catenin1; assay: Beta-Catenin1:mCherry HDR in H1299 cells
Experimental: (§1) After three days, media was replaced with HBSS (to reduce background for imaging) imaged using an EVOS M5000 imaging system. Imaging was performed by randomly finding and focusing on at least ten different sections per well using a 20× magnification lens, after which both brightfield and RFP images were acquired. Imaged were quantified by hand, using control images as the basis for RFP/mCherry background fluorescence.

[5] = system: Cadherin1; assay: Cadherin1:mCherry HDR in H1299 cells
Experimental: as §1, with “10×” for “20×”

[6] = system: AAVS1; assay: RLucRT luminescence HDR assay in H1299 cells; conditions: for luminescence relative to Cas9: RLucRT (2.0 kb)
Experimental: FIG. 4B illustrates experimental procedures for RLucRT experiments. Diagram showing experimental procedure for the dsDNA RLucRT HDR assay in H1299 cells. […] After two days, cellular viability is quantified via Resazurin assay, then cells are washed with PBS then lysed. Lysate is then incubated with Coelenterazine, and luminescence immediately quantified via plate reader.
For these experiments, the well characterized safe harbor site AAVS1 was used combined with previously established and functional guide RNAs AAVS1 T1 and T2, which will be referred to as G1 and G2 respectively hereafter. […] As with the puromycin resistance cassette, PCR amplified dsDNA was used as opposed to plasmids to avoid confounding results when quantifying HDR rates, and to avoid extra integration of plasmid specific sequences in the genome.
Next the viability of transfected cells was quantified via resazurin after two days, then cells were washed with PBS, then lysed and luminescence quantified via plate reader (FIG. 4B). […] Next Luminescence was quantified via the Renilla-Glo Luciferase Assay System (Promega) using a 96 well plate reader with luminescence capabilities (Tecan). After data collection, raw luminescence was background subtracted from non-transfected control cells, corrected for cellular viability, and plotted in FIG. 4D.
After two days, cellular viability was quantified via Resazurin, then washed with PBS and lysed with 25 μL of cell lysis buffer, and luciferase activity was quantified via Renilla Luciferase Assay (Promega) and using a Tecan Infinite Mplex plate reader.

[7] = system: intergenic region on Chromosome 6 (Int-G2, Int-G3); assay: PuroRT HDR quantification in K562 cells (puromycin survival)
Source text: The target integration site is approximately ˜1 kb to the 3′ end of the human H2B gene on Chromosome 6, an intergenic region which has no predicted genes or long non-coding RNA.
Next, to assay HDR rates, K562 cells were again used instead of A549 cells, as the lack of a functional p53 gene should help to deconvolute HDR rates from cellular toxicity effects. […] After two days, DNA was extracted from ˜ 1/10 of surviving cells and used for analysis of Puro RT genomic integration. The next day, 0.5 mg/mL puromycin was added, and after three days cellular survival was quantified via resazurin assay as described previously.
After two days, 1/10 of cells were taken for DNA extraction, while the rest were treated with 0.5 μg/mL puromycin. Cells were grown for a further 3 days then viability quantified via Resazurin assay.

[8] = system: endogenous H2B; assay: H2B-mNeon knock-in HDR quantification in K562 cells; conditions: H2B-mNeon RT
Experimental: After two days, cells were fixed in 4% PFA washed in PBS, then directly imaged, with cells showing nuclear localized fluorescence counted as successful HDR events.
K562 were grown in 24 well plates with RPMI-1640 supplemented with 5% FBS until roughly 70% confluent. At that time cells were either electroporated using the mNeon system (Invitrogen) using optimized settings for K562 cells, or lipofectamine 3000 again following manufactures instructions. Cells were then returned to 24 well plates with fresh media and grown for at least two days before being used in downstream analysis.
After 2 days, cells attached to coverslips coated with 0.01% poly-1-lysine, and were fixed in 4% PFA (Thermofisher) for 15 minutes at RT. After fixation, cells were washed 3× in PBS, mounted in 50% glycerol and imaged on a Nikon Eclipse E600 with standard FITC filters. For quantification, random patches of cells (usually between 8-15 cells per image) were identified via Brightfield, then fluoresce images were taken with constant illumination and exposure time (100%, and 110 ms respectively).

[9] = SHS-231 G1, 14 Days, stitched images
[10] = comparison with Dna2 fusions, day 3

Q: Which “cellular fluorescence (expression) levels of mNeon+ cells compared to Cas9” value ([1]; 14 days) does the source give for “Cas9-HR 8: hExo1(1-352)-Cas9 fusion of FIG. 1A; E. coli codon optimized vectors SEQ ID NO: 68 and 69” here?
A: Its value is “much more uniform and lower expression levels”.

Q: And the “absolute numbers of mNeon+ cells” value ([1]; SHS-231-G1, SHS-231-mNeon RT, 14 days post-transfection)?
A: The value was 3652.

Q: And the “mNeon cell counts normalized to Cas9” value ([1]; SHS-231-G2, two independent experiments)?
A: Its value is “increase of HDR rates”.

Q: What about the “GFP+ cells compared to Cas9” value [1, 9] of the same substance?
A: The value was “significantly more GFP+ cells”.

Q: And the “total cells compared to Cas9” value [1, 9]?
A: The value was “significantly more total cells”.

Q: And the “HDR rates compared to Cas9 (normalized knock-in rates)” value [2]?
A: Its value is about 3.5 ×.

Q: And the “absolute mCherry+ cells relative to Cas9-NT or repair template alone” value [2]?
A: Its value is “significant increases in mCherry+ cells”.

Q: What about the “numbers of mCherry+ cells compared to repair template” value [2] of the same substance?
A: The value was “significantly increased numbers of mCherry+ cells”.

Q: What about the “HDR rates compared to Cas9 (normalized knock-in rates)” value ([3]; B-Cat-G3) of the same substance?
A: The value was about 2.5 ×.

Q: And the “absolute mCherry+ cells relative to Cas9-NT or repair template alone” value ([3]; Beta-Catenin-G1)?
A: The value was “significant increases in mCherry+ cells”.

Q: And the “numbers of mCherry+ cells compared to repair template” value ([3]; Beta-Catenin-G1)?
A: Its value is “significantly increased numbers of mCherry+ cells”.

Q: What about the “fold change in mCherry+ cells relative to Cas9” value ([4]; G2, day 3) of the same substance?
A: The value was about 2.5 fold.

Q: And the “fold change in mCherry+ cells relative to Cas9” value ([4]; G3, day 3)?
A: The value was about 2.5 fold.

Q: What about the “fold increase in mCherry+ cells relative to Cas9” value ([4]; all guide polynucleotides (G1, G2, G3), day 3) of the same substance?
A: The value was over 2 fold.

Q: And the “mCherry+ cells compared to Cas9” value ([4]; all three gRNAs, day 3)?
A: Its value is “significant increases in mCherry+ cells”.

Q: And the “positive cell count compared to Beta-Catenin1:mCherry alone” value ([4]; average mCherry+ cells per image section, day 3)?
A: The value was “significant increases in positive cell count”.

Q: And the “mCherry+ cells, whole well imaging” value ([5]; H1299 cells, 12 well plate, Ecad-G1, 4 Days after transfection)?
A: Its value is “significant amounts of mCherry+ cells; also recorded: significantly higher amounts of mCherry+ cells”.

Q: What about the “fold change in mCherry+ cells relative to Cas9” value ([5]; H1299 cells, G1, day 3) of the same substance?
A: Its value is about 2.3 fold.

Q: What about the “fold increase in mCherry+ cells relative to Cas9” value ([5]; H1299 cells, all guide polynucleotides, day 3) of the same substance?
A: Its value is over 1.5 fold.

Q: What about the “mCherry+ cells compared to Cas9” value ([5]; H1299 cells, all three gRNAs (so in the source), day 3) of the same substance?
A: The value was “significant increases in mCherry+ cells”.

Q: What about the “positive cell count compared to Cadherin1:mCherry alone” value ([5]; H1299 cells, average mCherry+ cells per image section, day 3) of the same substance?
A: Its value is “significant increases in positive cell count”.

Q: What about the “normalized Cadherin1:mCherry HDR rate (fold change compared to Cas9)” value ([5]; comparison with Dna2 fusions) of the same substance?
A: The value was “significantly higher HDR rate”.

Q: What about the “mCherry+ cell count compared to Cadherin1:mCherry RT alone” value [5, 10] of the same substance?
A: Its value is “significant increases in mCherry+ cell count”.

Q: What about the “mCherry+ cells compared to Cas9” value [5, 10] of the same substance?
A: The value was “significant increases in mCherry+ cells”.

Q: What about the “nested junction PCR of RLucRT integration (5′ and 3′)” value ([6]; AAVS1-G1) of the same substance?
A: Its value is “Strong specific amplification”.

Q: And the “luminescence relative to Cas9” value ([6]; AAVS1 G1)?
A: The value was about 2.5 fold.

Q: And the “luminescence relative to Cas9” value ([6]; AAVS1 G2)?
A: The value was about 2 fold.

Q: What about the “luminescence, AAVS1-G1 compared with AAVS1-G2” value ([6]; background subtracted) of the same substance?
A: Its value is “significantly higher luminescence”.

Q: What about the “increase in HDR rates compared to Cas9 (Cas9 normalized luminescence)” value ([6]; both G1 and G2) of the same substance?
A: The value was 2-3 ×.

Q: And the “PCR of genomic integration of Puro RT at 5′ and 3′ ends” value [7]?
A: The value was “successful integration of the repair template”.

Q: What about the “PCR of 5′ and 3′ knock-in junctions” value ([8]; genome specific plus RT specific primers) of the same substance?
A: Its value is “Successful amplification”.

Q: And the “HDR rate (cells with nuclear localized mNeon fluorescence)” value ([8]; hH2B-G4, two days, compared to Cas9-HR 4 or Cas9)?
A: The value was “significant increase in HDR rate”.
